Laboratory results from patent US20260365637A1, “DUAL EZH2-HSP90 INHIBITORS” (TAIPEI MEDICAL UNIVERSITY, priority 2023, published 2026).
Entries after “also recorded” stand apart in the source; their conditions may differ.

Assays:
HSP90a = HSP90a (Homo sapiens, UniProt P07900); assay: In vitro HSP90 inhibition assay (Reaction Biology Corporation); format: biochemical
Procedure: The HSP90 inhibitory activity of the synthesized adduct was assessed by Reaction Biology Corporation, Malvern, PA (http://www.reactionbiology.com).
An in-vitro experiment was performed to assess the inhibitory effect of the synthesized adducts on the heat shock protein 90 (HSP90).

Pt3R cells [1] = assay: Itraq-based proteomics analysis of Pt3R cells; format: cell-based, human; design: M059/DMSO, P4HA2 (O15460) / M059/DMSO, ATP6V1E1 (P36543) / M059/DMSO, HSPH1 (Q92598) / M059/DMSO, ACTB (P60709) / M059/DMSO, HSPB1 (P04792) / M059/DMSO, S100A10 (P60903) / M059/DMSO, LRPAP1 (P30533) / M059/DMSO, GIPC1 (O14908) / M059/DMSO, HSPE1 (P61604) / M059/DMSO, OLA1 (Q9NTK5) / M059/DMSO, EEF1B2 (P24534) / M059/DMSO, PSMD3 (O43242) / M059/DMSO, ZYX (Q15942) / M059/DMSO, HK1 (P19367) / M059/DMSO, ARF3 (P61204) / M059/DMSO, TWF1 (Q12792) / M059/DMSO, HSPA8 (P11142) / M059/DMSO, CTNNB1 (P35222) / M059/DMSO, EHD1 (Q9H4M9) / M059/DMSO, HSPA4 (P34932) / M059/DMSO, PSMD14 (O00487): dose or concentration left out as unconfirmed
Procedure: Pt3 GBM cells were isolated from a GBM patient as described in our previous study. Temozolomide (TMZ)-resistant phenotype of Pt3R cells had been validated previously. Pt3 cells were cultured in DMEM-supplemented with 10% fetal bovine serum, 100 μg/ml streptomycin and 100 μg/ml penicillin G. Pt3R cells were cultured in the presence of 100 μM of TMZ (MilliporeSigma Corporate, St. Louis, MO, USA).
RNA was isolated using the RNA extracting kit (Zymo Research, Irvine, CA, USA), and subjected to RNA-seq serviced by BIOTOOLS Co., Ltd (New Taipei City, Taiwan). Cell pellets were collected and subjected to proteomic analysis serviced by BIOTOOLS Co., Ltd. The comparison in gene expression between Pt3 and Pt3R was performed using RNA seq, and has been described previously.
Having identified the desired chemical probe 7, we assessed global protein expression using Itraq-based proteomics analysis to estimate whether 7 suppresses HSP90 (Pt3R cell lines). […] This observation is aligned with the results attained with geldanamycin treatment (a well-known HSP90 inhibitor) (Cheung, C. H. A.; Chen, H.-H.; Cheng, L.-T.; Lyu, K. W.; Kanwar, J. R.; Chang, J.-Y. TargetingHsp90 with small molecule inhibitors induces the over-expression of the anti-apoptotic molecule, survivin, in human A549, HONE-1 and HT-29 cancer cells. Mol. Cancer 2010, 9 (1), 1-11; Kuroyanagi, G.; Tokuda, H.; Fujita, K.; Kawabata, T.; Sakai, G.; Kim, W.; Hioki, T.; Tachi, J; Matsushima-Nishiwaki, R.; Otsuka, T. Upregulation of TGF-β-induced HSP27 by HSP90 inhibitors in osteoblasts. BMC Musculoskelet. Disord. 2022, 23 (1), 495) and confirms the HSP90-suppressive activity of compound 7 in GBM cells.

Pt3R cells [2] = assay: Cell viability / cytotoxicity of TMZ-resistant Pt3R cells (CCK8); format: cell-based, human
Pt3 cells = assay: Cellular ROS assay (DHR, flow cytometry) in Pt3 cells; format: cell-based, human; conditions: 48 h, FIG. 7A
Source text: (§1) Dihydrorhodamine 123 (DHR; Thermo Fisher Scientific, Waltham, MA, USA) was used to label cellular ROS detected by flow cytometry, and the MitoSOX reagent (Thermo Fisher Scientific) was used to label mitochondrial ROS [55].
(§2) Treatment concentration of MPT1A059 was indicated.

mitochondrial ROS = assay: MitoSOX assay of mitochondrial ROS; format: cell-based
Procedure: as §1
Thus, the ability of compound 7 to disturb redox homeostasis in TMZ-resistant cells and attain amplified therapeutic efficacy for GBM was evaluated. In both Pt3 and Pt3R cells, treatment with compound 7 for 48 h increased the ROS level (FIG. 7A). […] Moreover, it was also observed that compound 7 increased mitochondria-derived ROS.
as §2

CCN(c1cc(-c2cccc(N(C)C(=O)c3cc(C(C)C)c(O)cc3O)c2)cc(C(=O)NCc2c(C)cc(C)[nH]c2=O)c1C)C1CCOCC1 [Compound 7, 3′-(2,4-dihydroxy-5-isopropyl-N-methylbenzamido)-N-((4,6-dimethyl-2-oxo-1,2-dihydropyridin-3-yl)methyl)-5-(ethyl(tetrahydro-2H-pyran-4-yl)amino)-4-methyl-[1,1′-biphenyl]-3-carboxamide]
HSP90 inhibitory potential in words (HSP90a): conferred HSP90 inhibitory potential
IC50 (HSP90a): 60.1 nM
HSP family proteins (HSPA1A, HSPA8, HSP90AA1, HSPB1, HSPH1 and HSPA4) (Pt3R cells [1]; Pt3R cells): significantly increased
M059/DMSO, PA2G4 (Q9UQ80) (Pt3R cells [1]; decreased): 0.628
M059/DMSO, ACTB (P60709) (Pt3R cells [1]; increased): 1.657
M059/DMSO, ARF3 (P61204) (Pt3R cells [1]; increased): 1.944
M059/DMSO, ATP5IF1 (Q9UII2) (Pt3R cells [1]; increased): 1.646
M059/DMSO, ATP6V1E1 (P36543) (Pt3R cells [1]; increased): 1.599
M059/DMSO, CTNNB1 (P35222) (Pt3R cells [1]; increased): 1.550
M059/DMSO, EEF1B2 (P24534) (Pt3R cells [1]; increased): 1.792
M059/DMSO, EHD1 (Q9H4M9) (Pt3R cells [1]; increased): 1.555
M059/DMSO, GIPC1 (O14908) (Pt3R cells [1]; increased): 1.699
M059/DMSO, HK1 (P19367) (Pt3R cells [1]; increased): 1.921
M059/DMSO, HSP90AA1 (P07900) (Pt3R cells [1]; increased): 1.958
M059/DMSO, HSPA4 (P34932) (Pt3R cells [1]; increased): 1.561
M059/DMSO, HSPA8 (P11142) (Pt3R cells [1]; increased): 2.096
M059/DMSO, HSPB1 (P04792) (Pt3R cells [1]; increased): 1.661
M059/DMSO, HSPE1 (P61604) (Pt3R cells [1]; increased): 1.710
M059/DMSO, HSPH1 (Q92598) (Pt3R cells [1]; increased): 1.642
M059/DMSO, LRPAP1 (P30533) (Pt3R cells [1]; increased): 1.667
M059/DMSO, OLA1 (Q9NTK5) (Pt3R cells [1]; increased): 1.745
M059/DMSO, P4HA2 (O15460) (Pt3R cells [1]; increased): 1.588
M059/DMSO, PSMD3 (O43242) (Pt3R cells [1]; increased): 1.801
M059/DMSO, PSMD14 (O00487) (Pt3R cells [1]; increased): 1.579
M059/DMSO, S100A10 (P60903) (Pt3R cells [1]; increased): 1.664
M059/DMSO, TWF1 (Q12792) (Pt3R cells [1]; increased): 1.995
M059/DMSO, ZYX (Q15942) (Pt3R cells [1]; increased): 1.903
cell growth / viability inhibitory effect in words (Pt3R cells [2]): the only ones to exert cell viability inhibitory potential; also recorded: the most effective against the Pt3R cell lines
IC50 (Pt3R cells [2]; read-out: Cell growth inhibitory effect IC50): 1010 nM
ROS level (Pt3 cells): increased
mitochondria-derived ROS (mitochondrial ROS): increased
MitoSOX red signal representing ROS produced from mitochondria (mitochondrial ROS; FIG. 7C): remarkably enhanced
